The text below walks through data of ChEMBL document CHEMBL3352491, “Novel semicarbazides and ureas of primaquine with bulky aryl or hydroxyalkyl substituents: synthesis, cytostatic and antioxidative activity” (Eur J Med Chem, 2014).

The subject of data set [1] is L1210. The experiment in a line: Cytostatic activity against mouse L1210 cells assessed as growth inhibition after 3 to 4 days by MTT assay. It counts as functional, cell-based. On the technique in general: Tetrazolium assays rely on reduction of a dye to a coloured formazan, in cell work by metabolically active cells.
Data set [2] is described as follows: Cytostatic activity against human Molt4/C8 cells assessed as growth inhibition after 3 to 4 days by MTT assay. It counts as functional, cell-based. As to conditions: MOLT-4; call rule not given here.
The test system of data set [3] is CCRF-CEM. Put plainly: Cytostatic activity against human CEM cells assessed as growth inhibition after 3 to 4 days by MTT assay. It counts as functional, cell-based.
In data set [4] the test system is HeLa. The experiment in a line: Cytostatic activity against human HeLa cells assessed as growth inhibition after 3 to 4 days by MTT assay. It counts as functional, cell-based.
The nature of data set [5]: Cytostatic activity against human MIAPaCa2 cells assessed as growth inhibition after 3 to 4 days by MTT assay. The format is functional, cell-based. As to conditions: MIA PaCa-2.
The test system of data set [6] is SW-620. The experiment in a line: Cytostatic activity against human SW620 cells assessed as growth inhibition after 3 to 4 days by MTT assay. The format is functional, cell-based.
In data set [7] the test system is MCF7. The experiment in a line: Cytostatic activity against human MCF7 cells assessed as growth inhibition after 3 to 4 days by MTT assay. It counts as functional, cell-based.
Data set [8] can be described thus: Cytostatic activity against human H460 cells assessed as growth inhibition after 3 to 4 days by MTT assay. The format is functional, cell-based. The conditions noted are these: NCI-H460.
Data set [9] can be described thus: Antioxidant activity assessed as DPPH scavenging activity at 100 uM after 20 mins by spectrophotometry. The format is physicochemical.
Data set [10] can be described thus: Antioxidant activity assessed as DPPH scavenging activity at 100 uM after 60 mins by spectrophotometry. As to conditions: 1 h. It counts as physicochemical. In general terms: The DPPH test is a chemical assay of radical scavenging.
The nature of data set [11]: Antioxidant activity assessed as inhibition of lipid peroxidation at 100 uM by spectrophotometry. It counts as physicochemical.
The target of data set [12] is Lipoxygenase (Glycine max) (UniProt Q39829). Put plainly: Inhibition of soybean LOX using sodium linoleate as substrate at 100 uM by spectrophotometry.

The term IC50 denotes the concentration that inhibits the measured activity by half. A word on the inhibition: it is the change of the read-out against control, counted positive when it falls. A low value points to little suppression.

With `COc1cc(NC(C)CCCNC(=O)N(C)C(c2ccccc2)c2ccccc2)c2ncccc2c1` (stereo unspecified), the half-inhibitory concentration (IC50) in data set [1] is 6.7 µM; in [2], 10 µM; in data set [3], 5.2 µM; in [4], 121 µM; in data set [5], 21 µM; in [6], more than 100 µM. Also, the half-inhibitory concentration (IC50) in data set [7] is 9 µM; in data set [8], not below 100 µM. Moreover, the results for the Activity in data set [9] and in data set [10] were 20% and 16%, respectively. Also, the “inhibition (INH)” value in [11] was found to be 79%.

Take `CCOC(=O)N(C)C(c1ccccc1)c1ccccc1`: the IC50 in data set [1] worked out at 96 µM; in data set [2], 105 µM; in [3], 108 µM; in data set [4] it was 80 µM; in data set [5] it was 94 µM; in [6] it was 27 µM. The figures for the half-inhibitory concentration (IC50) in data set [7] and in data set [8] were 26 µM and not below 100 µM, respectively. The Activity entry in [9] and in data set [10] was “Not Active” in each case. Besides, the “inhibition (INH)” value in data set [11] is on record as “Not Active”.

For `COc1cc(NC(C)CCCNC(=O)NNC(=O)NCCCC(C)Nc2cc(OC)cc3cccnc23)c2ncccc2c1` (stereo unspecified), the IC50 in [1] was 92 µM; in data set [2] it was not below 250 µM; in data set [3], 87 µM; in data set [4] it was 67 µM; in data set [5], 69 µM; in data set [6], more than 100 µM. The IC50 in [7] was 0.2 µM; in data set [8], 94 µM. For the same compound, the Activity in [9] stood at 18%; in [10], 37%. For the same compound, in data set [11], the “inhibition (INH)” value is 65%. In data set [12], this compound returned an inhibition of 31%.

On to `O=C(NC(c1ccccc1)c1ccc(Cl)cc1)n1nnc2ccccc21` (stereo unspecified), for which the half-inhibitory concentration (IC50) is 67 µM in data set [1]; 176 µM in [2]; 116 µM in [3]; 87 µM in [4]; 110 µM in data set [5]; 23 µM in [6]. The 50% inhibitory concentration (IC50) in data set [7] came out at 42 µM; in data set [8], 18 µM. Besides, the values for the Activity in data set [9] and in data set [10] were 24% and 12%, respectively. Besides, in data set [11], the “inhibition (INH)” value amounted to 63%. Besides, the inhibition in data set [12] came out at 28%.

As to `COc1cc(NC(C)CCCNC(=O)Nc2ccc(Cl)c(C(F)(F)F)c2)c2ncccc2c1` (stereo unspecified), the IC50 in data set [1] was found to be 3.6 µM; in [2], 3.4 µM; in data set [3], 3.1 µM; in data set [4] it was 3.9 µM; in data set [5], 4 µM; in [6], 23 µM. The half-inhibitory concentration (IC50) in data set [7] came out at 4 µM; in data set [8], 28 µM. In addition, the Activity in data set [9] was determined as 20%; in data set [10] it was 21%. The “inhibition (INH)” value in data set [11] amounted to 61%. In addition, the inhibition in data set [12] stood at 43%.

On to `CN(C(=O)NN)C(c1ccccc1)c1ccccc1`, for which the IC50 in [1] was not below 250 µM; in data set [2], 144 µM; in data set [3], 127 µM; in data set [4] it was 174 µM; in data set [5], 127 µM; in data set [6], more than 100 µM. The results for the 50% inhibitory concentration (IC50) in [7] and in data set [8] were not below 100 µM and more than 100 µM, respectively. Further, the figures for the Activity in data set [9] and in data set [10] were 24% and 47%, respectively. The “inhibition (INH)” value in data set [11] came out at 7%.

On to `CCOC(=O)NC(c1ccccc1)c1ccc(Cl)cc1` (stereo unspecified), for which the half-inhibitory concentration (IC50) in [1] is more than 250 µM; in [2], more than 250 µM; in [3], more than 250 µM; in data set [4], more than 250 µM; in [5], 142 µM; in data set [6] it was more than 100 µM. Moreover, the IC50 in data set [7] and in [8] was more than 100 µM throughout. Further, the Activity entry in data set [9] and in data set [10] was “Not Active” each time. Moreover, in data set [11], the “inhibition (INH)” value is listed as 21%.

Regarding `Cc1c(C)c2c(c(C)c1O)CCC(C)(C(=O)O)O2` (stereo unspecified) [TROLOX], the “inhibition (INH)” value in data set [11] stood at 63%.
